“Also recorded” adds a separate entry of the source. Like-named read-outs stand apart in the source and are kept apart here.
Key:
[1] = tested on: vacuolated pyramidal neurons of posterior cingulate and retrosplenial (PC/RS) cortices, MK-801 neurotoxicity; experiment: Blocking MK-801 neurotoxicity (vacuolated PC/RS cortical neurons) in rats by serotonergic agents; type: in vivo, adult female rats; settings: for ED50: Rattus norvegicus, Pyramidal neuron, read-out: ED50 in blocking MK-801 neurotoxicity, rats
Protocol: Each test rat also received a 5HT-2A/2C agonist drug (LSD, DOB, DOI, or DOM), while control rats received an inert carrier liquid as a placebo. After 4 hours, the rats were sacrificed, and brain tissue from specific regions which are susceptible to NR/hypo damage (layers III and IV of the posterior cingulate (PC) and retrosplenial (RS) cortices) were examined for vacuoles in the neurons, which are an indicator of toxic neuronal injury induced by NMDA receptor hypofunction.
DOI was purchased from Research Biochemicals International (Natick, Mass.).
(§1) For each test agent, at least 20 rats were used, and at least four dosages were tested.
(§2) The rats were sacrificed four hours after drug administration, and brain tissue from the PC/RS region was histopathologically evaluated by previously described methods using double-blinded techniques (Olney et al 1991). The number of vacuolated PC and RS neurons were counted on each side of the brain at a rostrocaudal level immediately posterior to where the corpus callosum ceases decussating across the midline (approximately 5.6 mm caudal to Bregma; Paxinos & Watson, The Rat Brain in Stereotaxic Coordinates, 2d Ed., 1986).
This drug is widely used in Europe, and is a 5HT-2A agonist but a 5HT-2C antagonist.
It is described in Nozulak et al 1993.

[2] = tested on: 5HT2C receptors; settings: Burris et al 1991 or other literature; cited from earlier work
[3] = tested on: cerebrocortical neurons; settings: cited from earlier work
[4] = tested on: schizophrenia; settings: cited from earlier work
[5] = tested on: 5HT-2A/2C receptor; experiment: 5HT-2A/2C antagonist block of agonist protection against MK-801 neurotoxicity; type: in vivo, adult female rats
Description: The following example confirms that the neuroprotective effects provided by 5HT-2A/2C agonists are mediated through either the 5HT-2A or 5HT-2C receptor (or both), rather than through cross-reactivity at some other receptor or through some other mechanism. This was done by showing that these neuroprotective effects are blocked by selective 5HT-2A/2C antagonists.
Ritanserin is an antagonist drug that selectively blocks activation of 5HT-2A/2C receptors.
The brains were processed and the severity of damage was assessed as described in Example 1. Results were analyzed by analysis of covariance (ANCOVA) where the dose of DOI was the covariate and the presence of ritanserin served as the classification (treatment) variable. The homogeneity of slopes assumption was tested by determining whether there was a significant interaction between the covariate and the treatment variable.

[6] = tested on: NR/hypo-induced vacuoles in PC/RS cortical neurons (MK-801); experiment: Anti-psychotic drugs and sigma blockers: protection against NR/hypo-induced vacuoles; type: in vivo, rats; settings: for ED50: Rattus norvegicus, Cortical neurone, read-out: ED50 in protecting against NR/hypo-induced vacuoles; for ED50 / activity in protecting against NR/hypo-induced vacuoles (words): ip; for effect on vacuole formation / activity in protecting against NR/hypo-induced vacuoles (words): rats, MK-801; for activity in protecting against NR/hypo-induced vacuoles (words): sulpiride given only 15 minutes prior to MK-801
Protocol: Several of the antipsychotic agents tested (haloperidol, thioridazine and loxapine) are known to interact with both dopamine receptors and sigma receptors.
Control animals received saline or DMSO, but no anti-psychotic drugs. Test animals were injected ip with an antipsychotic drug, listed above and in Table 2. Vacuoles were counted and data were processed as described in Example 1.

[7] = tested on: humans; settings: cited from earlier work; for psychotomimetic reactions / psychosis in humans: NMDA antagonists
[8] = tested on: 5HT-3; settings: cited from earlier work
[9] = tested on: 5HT-2C; settings: cited from earlier work
[10] = tested on: 5HT-6; settings: cited from earlier work
[11] = tested on: 5HT-7; settings: cited from earlier work
[12] = tested on: NMDA antagonist toxic side effects; experiment: Safener drugs against NMDA antagonist toxic side effects (earlier findings); type: in vivo; settings: Applicants' discovery, no data given
[13] = tested on: craving for cocaine; settings: Sershen 1994; cited from earlier work
[14] = tested on: 5HT-2A receptors; settings: Burris et al 1991 or other literature; cited from earlier work
[15] = tested on: pyramidal neurons in layers III and IV of the posterior cingulate (PC) and retrosplenial (RS) cortices; experiment: Neurotoxic reaction to MK-801 in control rats (vacuolated neurons per section); type: in vivo, adult female rats; settings: MK-801 0.5 mg/kg sc plus vehicle; ± SEM; n=26
Protocol: as §1, §2

[16] = tested on: NMDA receptors in chick embryo retina; experiment: Excitotoxicity in chick embryo retina (NMDA with MK-801, LSD or DOI); settings: MK-801 500 nM plus NMDA 40 μM, with or without LSD or DOI 500 nM to 100 μM; n=6 per condition
Protocol: Several tests were performed to ensure that when a 5HT-2A agonist is administered together with an NMDA antagonist, the 5HT-2A agonist will not interfere with the activity of the NMDA antagonist drug at NMDA receptors.
These experiments were performed using segments of chick embryo retina. This is a widely used model for studying the production and prevention of excitotoxic phenomena, since it is simple and inexpensive. Chick tissue is used, since it tends to provide a better model of adult mammalian tissue than embryonic or juvenile mammalian tissue. Unlike newborn mammals, which are usually blind at birth, baby chicks can see quite well as soon as they emerge from the shell, and the NMDA receptors in chick retinal tissue are fully mature and functional.
In these tests, NMDA was introduced into the incubation medium in a concentration (40 μM) sufficient to produce a fully developed excitotoxic lesion within 30 min, displaying acute degeneration and necrosis of the majority of neurons in the inner layers of the retina.

[17] = Olney et al 1989, Corso et al 1994, adult rat
[18] = ip, 4 h, MK-801 0.5 mg/kg sc, test compound ip, dose reducing mean vacuolated neurons to 50% of control, 4 h

Compound: CN1CC[C@@H]2CN3CCc4cccc(c43)[C@@H]2C1.O=C(O)/C=C/C(=O)O [SDZ SER-082]
- effect on MK-801 neurotoxicity ([1]; selective 5HT-2C antagonist, n=22): did not affect MK-801 neurotoxicity, either positively or negatively
- activity at 5HT-2C receptors [2]: selective 5HT-2C antagonist

Compound: CCNC1(c2cccs2)CCCCC1=O (stereo not shown) [Tiletamine]
- pathomorphological changes in brain [3, 17]: cause pathomorphological changes in the cerebral cortex of adult rats

Compound: Cc1nc2sccn2c(=O)c1CCN1CCC(=C(c2ccc(F)cc2)c2ccc(F)cc2)CC1 [ritanserin]
- effect on positive symptoms of schizophrenia ([4]; hallucinations, delusions): did not help relieve "positive" symptoms
- effect on symptoms of schizophrenia ([4]; schizophrenic patients): only helped relieve certain "negative" symptoms of schizophrenia
- effect on exacerbation of schizophrenia by mCPP ([4]; schizophrenic patients, mCPP): can be blocked
- effect of antagonist on DOI's protection ([5]; ritanserin 0.03 mg/kg ip plus various doses of DOI, F(1,84)=23.36, p<0.0005): competitively blocks DOI's protective effects against the toxic side effects of MK-801; also recorded: significantly interfered with DOI's protection
- shift of the DOI blocking curve by ritanserin ([5]; ritanserin 0.03 mg/kg ip, FIG. 3): shifted the blocking curve to the right

Compound: CN1CCN(C2=Nc3cc(F)ccc3Cc3ccccc32)CC1 [Fluperlapine]
- ED50 [6]: 2.3 mg/kg
- effect on vacuole formation [6]: shown to reduce vacuole formation

Compound: CN1CCN(C2=Nc3ccccc3Oc3ccc(Cl)cc32)CC1 [Loxapine]
- ED50 [6]: 23.6 mg/kg

Compound: c1ccc(C2(N3CCCCC3)CCCCC2)cc1 [Phencyclidine]
- pathomorphological changes in brain [3, 17]: produce pathomorphological changes in various corticolimbic regions of the adult rat brain
- psychotomimetic reactions / psychosis in humans [7]: can induce a psychosis which is clinically indistinguishable from schizophrenia

Compound: CN1CCN(C2=Nc3cc(Cl)ccc3Nc3ccccc32)CC1 [Clozapine]
- affinity for 5HT-3 [8]: high affinity
- affinity for 5HT-2C [9]: high affinity
- ED50 [6]: 3.2 mg/kg
- affinity for 5HT-6 [10]: high affinity
- affinity for 5HT-7 [11]: high affinity

Compound: CSc1ccc2c(c1)N(CCC1CCCCN1C)c1ccccc1S2 (stereo not shown) [Thioridazine]
- ED50 [6]: 55.3 mg/kg

Compound: O=C(CCCN1CCC(O)(c2ccc(Cl)cc2)CC1)c1ccc(F)cc1 [Haloperidol]
- ED50 [6]: 5.1 mg/kg

Compound: Clc1ccc2c(c1)C(N1CCNCC1)=Nc1ccccc1O2 [Amoxapine]
- ED50 [6]: 75 mg/kg

Compound: C=CCC1(C(C)CCC)C(=O)NC(=O)NC1=O (stereo not shown) [secobarbitol]
- prevention of NMDA antagonist toxic side effects [12]: prevent NMDA antagonists from causing toxic side effects

Compound: CCN1CCCC1CNC(=O)c1cc(S(N)(=O)=O)ccc1OC (stereo not shown) [Sulpiride]
- ED50 [6]: > 200 mg/kg
- activity in protecting against NR/hypo-induced vacuoles (words) [6]: Inactive
- activity in protecting against NR/hypo-induced vacuoles (words) ([6]; listed as sulpiride): inactive

Compound: CC[C@H]1C[C@H]2C[C@H]3c4[nH]c5ccc(OC)cc5c4CCN(C2)[C@@H]13 [ibogaine]
- suppression of craving for cocaine [13]: can suppress the craving for cocaine

Compound: COc1cc(CC(C)N)c(OC)cc1Br (stereo not shown) [DOB, 1-(2,5-dimethoxy-4-bromophenyl)-2-aminopropane]
- ED50 [1, 18]: 0.36 mg/kg
- activity at 5HT-2C receptors [2]: selectively activate 5HT-2A and 5HT-2C receptors with higher affinity than other 5HT receptors
- activity at 5HT-2A receptors [14]: selectively activate 5HT-2A and 5HT-2C receptors with higher affinity than other 5HT receptors

Compound: COc1cc(CC(C)N)c(OC)cc1C (stereo not shown) [DOM, 1-(2,5-dimethoxy-4-methylphenyl)-2-aminopropane]
- ED50 [1, 18]: 0.81 mg/kg
- activity at 5HT-2C receptors [2]: selectively activate 5HT-2A and 5HT-2C receptors with higher affinity than other 5HT receptors
- activity at 5HT-2A receptors [14]: selectively activate 5HT-2A and 5HT-2C receptors with higher affinity than other 5HT receptors

Compound: COc1cc(CC(C)N)c(OC)cc1I (stereo not shown) [DOI, 1-(2,5-dimethoxy-4-iodophenyl)-2-aminopropane]
- protection against NMDA antagonist toxicity with SDZ SER-082 added ([1]; DOI n=29, SDZ SER-082 added to block 5HT-2C receptor): found to protect against NMDA antagonist toxicity
- ED50 [1, 18]: 1.05 mg/kg
- activity at 5HT-2C receptors [2]: selectively activate 5HT-2A and 5HT-2C receptors with higher affinity than other 5HT receptors
- activity at 5HT-2A receptors [14]: selectively activate 5HT-2A and 5HT-2C receptors with higher affinity than other 5HT receptors

Compound: CCNC(C)Cc1cccc(C(F)(F)F)c1 (stereo not shown) [fenfluramine]
- effect on symptoms of schizophrenia ([4]; schizophrenic patients): can exacerbate the symptoms and displays of schizophrenia

Compound: N[C@@H](Cc1c[nH]c2ccccc12)C(=O)O [tryptophan]
- effect on symptoms of schizophrenia ([4]; schizophrenic patients): can exacerbate the symptoms and displays of schizophrenia

Compound: CCN(CC)C(=O)N[C@H]1C=C2c3cccc4[nH]cc(c34)C[C@H]2N(C)C1 [Lisuride]
- prevention of the neurotoxic action of MK-801 / vacuole formation ([1]; rats, 5HT-2A/2C agonists, ip): can prevent vacuole formation caused by MK-801
- hallucinations ([7]; in vivo): does not cause hallucinations

Compound: CNC1(c2ccccc2Cl)CCCCC1=O (stereo not shown) [Ketamine]
- pathomorphological changes in brain ([3]; rat, in vivo): cause pathomorphological changes in the cerebral cortex of adult rats
- psychotomimetic reactions / psychosis in humans [7]: produces symptoms in normal humans that are indistinguishable from the symptoms of psychosis and thought disorder seen in schizophrenia
- duration of action ([7]; anesthetic, intravenous): about 15 minutes

Compound: Cc1ccccc1N=C(N)Nc1ccccc1C [Di(2-tolyl)guanidine, di(2-tolyl)guanidine]
- ED50 [6]: 22.2 mg/kg

Compound: Cc1cc2c(s1)Nc1ccccc1N=C2N1CCN(C)CC1 [Olanzapine]
- ED50 [6]: 1.4 mg/kg
- effect on vacuole formation [6]: shown to reduce vacuole formation

Compound: CCN(CC)C(=O)[C@@H]1C=C2c3cccc4[nH]cc(c34)C[C@H]2N(C)C1 [LSD, lysergic acid diethylamide]
- ED50 [1, 18]: 0.68 mg/kg
- ED50 in blocking MK-801 neurotoxicity ([1]; rats, MK-801 0.5 mg/kg sc, test compound ip, dose reducing mean vacuolated neurons to 50% of control, 4 h, 240 min): 0.67 mg/kg
- activity at 5HT-2C receptors [2]: agonizes 5HT-2A and 5HT-2C receptors
- activity at 5HT-2A receptors [14]: agonizes 5HT-2A and 5HT-2C receptors

Compound: C[C@]12N[C@H](Cc3ccccc31)c1ccccc12 [MK-801, (+)-5-methyl-10,11-dihydro-5H-di[a,d]cyclohepten-5,10-imine]
- mean number of vacuolated neurons per section [15]: 223±10.5
- protection against NMDA excitotoxic damage [16]: completely protected against excitotoxic damage; also recorded: showed no cytopathology

Compound: COc1cccc([C@H](O)C2CCN(CCc3ccc(F)cc3)CC2)c1OC [MDL 100,907]
- activity at 5HT-2C receptors [2]: does not substantially affect 2C receptors
- activity at 5HT-2A receptors [14]: preferentially antagonizes 2A receptors

Compound: C[C@@H]1CN(CCCn2c3ccccc3c3ccccc32)C[C@H](C)N1 [Rimcazole]
- ED50 [6]: 17.8 mg/kg
